{"source": "paper PMC6895180", "about": "(Nature Communications, 2019)", "key": {"T. brucei ADKIN": {"target": "T1, T. brucei ADKIN (Trypanosoma brucei brucei, UniProt Q584S6)", "T1 sequence (Q584S6 1-345)": "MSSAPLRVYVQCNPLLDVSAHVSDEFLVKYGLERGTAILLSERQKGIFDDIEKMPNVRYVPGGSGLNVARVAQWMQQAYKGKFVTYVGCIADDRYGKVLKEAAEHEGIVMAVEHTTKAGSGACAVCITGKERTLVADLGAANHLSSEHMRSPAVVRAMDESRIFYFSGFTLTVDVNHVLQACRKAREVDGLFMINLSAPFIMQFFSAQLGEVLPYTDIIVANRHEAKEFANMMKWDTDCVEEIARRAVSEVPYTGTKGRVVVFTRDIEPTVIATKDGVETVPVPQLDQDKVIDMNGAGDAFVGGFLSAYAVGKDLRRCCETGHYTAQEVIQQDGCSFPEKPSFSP", "test": "ADKIN assay (phosphorylation by purified recombinant enzyme, HPLC)", "assay_type": "biochemical", "design": "Conc.9-MP: unit not given here", "conditions": "for Conc.9-MP: TbAK assay; for Act (U/mg): TbAK", "experimental": "The T. brucei ADKIN enzyme was diluted in a buffer containing 0.05% (v/v) Tween-20, 50 mM KCl, 0.1 mM dithiothreitol, and 50 mM Tris-HCl, pH 7.5 (dilution buffer), prior to use in the assay. The final assay mixture contained 12.5 ng T. brucei ADKIN, a range between 50 and 1000 µM of nucleoside 9 (or 1000 µM deoxyadenosine in the control reaction), 100 mM KCl, 10 mM MgCl2, 0.5 mM ATP, 5 mM potassium phosphate and 50 mM Tris-HCl, pH 7.5. The assay was incubated at 37 °C for 30 min, and subsequently heated for 2 min at 100 °C to inactivate the enzyme, diluted with 2 volumes of water, centrifuged through a Nanosep 3k Omega filter and mixed 1:1:2 with water and mobile phase. The HPLC analysis was performed on a 2.1 × 150 mm ACE Excel C18 column using a mobile phase composition 4A:76B:20C (see nucleotide pool analysis, Supplementary Information for details). Using these conditions, consecutive samples could be loaded (Supplementary Fig. 12). After 4–5 samples, the column was washed with high percent A (80A:20C) to remove bound ADP and ATP before re-equilibrating the column to original conditions."}, "[1]": {"test": "Metabolic stability, mouse liver microsomes (phase I and II)", "experimental": "Mouse, rat, and pooled human liver microsomes were purchased from a commercial source (Corning) and stored at -80 °C. NADPH generating system solutions A and B and UGT reaction mix solutions A and B (Corning) were kept at -20°C. The test compound and the reference compounds diclofenac (MW […]\nmicrosomal stability assay was carried out based on the BD Biosciences Guidelines for Use (TF000017 Rev1.0) with minor adaptations. Metabolic stability of the compounds was studied through the CYP450 superfamily (phase I metabolism) by fortification with reduced nicotinamide adenine dinucleotide phosphate (NADPH) and through uridine glucuronosyl-transferase (UGT) enzymes (phase II metabolism) by fortification with uridine diphosphate glucuronic acid (UDPGA). For the CYP450 and other NADPH dependent enzymes, both compounds were incubated at 5 µM together with 0.5 mg mL-1 liver microsomes in potassium phosphate buffer in a reaction started by the addition of 1 mM NADPH […]\nAt these time points, 20 µL was withdrawn from the reaction mixture and 80 µL cold acetonitrile (ACN) containing the internal standard tolbutamide, was added to inactivate the enzymes and precipitate the proteins. The mixture was vortexed for 30 s and centrifuged at 4 °C for 5 min at 15,000 rpm. The supernatant was stored at -80°C until analysis. For the UGT enzymes, both compounds were incubated at 5 µM together with 0.5 mg mL-1 liver microsomes in a reaction started by the addition of 2 mM UDPGA cofactor. The corresponding loss of parent compound was determined using liquid chromatography (UPLC) (Waters AquityTM) coupled with tandem quadrupole mass spectrometry (MS²) (Waters XevoTM), equipped with an electrospray ionization (ESI) interface and operated in multiple reaction monitoring (MRM) mode. […]"}, "T. brucei NY-SM cells": {"system": "T. brucei NY-SM cells", "test": "Cell cycle analysis by flow cytometry", "assay_type": "cell-based, Trypanosoma brucei", "experimental": "After 24 h, the cells were harvested and washed with PBS before staining with Hoechst 33342 at 5 µg mL^−1 for 25 min at 37 °C. Cells were analysed on a MACSQuant flow cytometer (Miltenyi Biotec) using the FlowJo X software package."}}, "note": "“And” between values parts separate entries of the source, which are not always exact repeats. Equal entries are not always repeated."}
{"smiles": "Nc1ncnc2c1ccn2[C@@H]1O[C@H](CO)C[C@H]1O", "note": "[Compound 9, 3’-deoxytubercidin]", "values": [{"measurement": "Conc.9-MP", "setting": "T. brucei ADKIN; substrate 50 µM, 3 series", "value": "11.2244 and 8.987 and 9.705"}, {"measurement": "Conc.9-MP", "setting": "T. brucei ADKIN; substrate 100 µM", "value": "19.1548 and 15.376 and 17.4986"}, {"measurement": "Conc.9-MP", "setting": "T. brucei ADKIN; substrate 250 µM", "value": "33.0019 and 26.0907 and 28.4308"}, {"measurement": "Conc.9-MP", "setting": "T. brucei ADKIN; substrate 500 µM", "value": "42.1131 and 37.0292 and 37.487"}, {"measurement": "Conc.9-MP", "setting": "T. brucei ADKIN; substrate 1000 µM", "value": "45.1958 and 43.7663 and 38.425"}, {"measurement": "Act (U/mg)", "setting": "T. brucei ADKIN; substrate 50 µM, U = µmol/min", "value": "1.497 U/mg and 1.198 U/mg and 1.294 U/mg"}, {"measurement": "Act (U/mg)", "setting": "T. brucei ADKIN; substrate 100 µM", "value": "2.554 U/mg and 2.05 U/mg and 2.333 U/mg"}, {"measurement": "Act (U/mg)", "setting": "T. brucei ADKIN; substrate 250 µM", "value": "4.4 U/mg and 3.479 U/mg and 3.791 U/mg"}, {"measurement": "Act (U/mg)", "setting": "T. brucei ADKIN; substrate 500 µM", "value": "5.615 U/mg and 4.937 U/mg and 4.998 U/mg"}, {"measurement": "Act (U/mg)", "setting": "T. brucei ADKIN; substrate 1000 µM", "value": "6.0261 U/mg and 5.836 U/mg and 5.123 U/mg"}, {"measurement": "Vmax mg^−1 with TbADKIN", "setting": "T. brucei ADKIN; mean and SE, n = 3", "value": "0.116 ± 0.0048 U (µmol s^−1)"}, {"measurement": "Vmax/mg with TbADKIN (original value)", "setting": "T. brucei ADKIN; value before revision", "value": "6.93 ± 0.29 U (µmol . min-1)"}, {"measurement": "% analogue 9 remaining, EXP 1 / EXP 2", "setting": "[1]; microsomes, 0 min, 5 µM", "value": 100, "unit": "%"}, {"measurement": "% analogue 9 remaining, Mean", "setting": "[1]; microsomes, 0 min, 5 µM", "value": 100, "unit": "%"}, {"measurement": "metabolic stability", "setting": "[1]; s9, 0.5 h", "value": "metabolically stable"}, {"measurement": "# cells 2N", "setting": "T. brucei NY-SM cells; 1.4 nM", "value": "18946 and 19862"}, {"measurement": "# cells 4N", "setting": "T. brucei NY-SM cells; 1.4 nM", "value": "4825 and 4846"}, {"measurement": "# cells S", "setting": "T. brucei NY-SM cells; 1.4 nM", "value": "16441 and 16011"}, {"measurement": "% of cells 2N", "setting": "T. brucei NY-SM cells; 1.4 nM", "value": "44.3% and 46.2%"}, {"measurement": "% of cells 4N", "setting": "T. brucei NY-SM cells; 1.4 nM", "value": 11.3, "unit": "%"}, {"measurement": "% of cells S", "setting": "T. brucei NY-SM cells; 1.4 nM", "value": "38.5% and 37.2%"}, {"measurement": "# cells 2N", "setting": "T. brucei NY-SM cells; 3.5 nM", "value": "19884 and 19251"}, {"measurement": "# cells 4N", "setting": "T. brucei NY-SM cells; 3.5 nM", "value": "4669 and 4555"}, {"measurement": "# cells S", "setting": "T. brucei NY-SM cells; 3.5 nM", "value": "15056 and 15140"}, {"measurement": "% of cells 2N", "setting": "T. brucei NY-SM cells; 3.5 nM", "value": "47.3% and 46.7%"}, {"measurement": "% of cells 4N", "setting": "T. brucei NY-SM cells; 3.5 nM", "value": 11.1, "unit": "%"}, {"measurement": "% of cells S", "setting": "T. brucei NY-SM cells; 3.5 nM", "value": "35.9% and 36.8%"}, {"measurement": "# cells 2N", "setting": "T. brucei NY-SM cells; 7 nM", "value": "18100 and 17699"}, {"measurement": "# cells 4N", "setting": "T. brucei NY-SM cells; 7 nM", "value": "3787 and 3626"}, {"measurement": "# cells S", "setting": "T. brucei NY-SM cells; 7 nM", "value": "10717 and 10604"}, {"measurement": "% of cells 2N", "setting": "T. brucei NY-SM cells; 7 nM", "value": "51.1% and 50%"}, {"measurement": "% of cells 4N", "setting": "T. brucei NY-SM cells; 7 nM", "value": "10.7% and 10.2%"}, {"measurement": "% of cells S", "setting": "T. brucei NY-SM cells; 7 nM", "value": "30.2% and 29.9%"}, {"measurement": "cell cycle analysis: impact on DNA synthesis", "setting": "T. brucei NY-SM cells; 24 h, various concentrations", "value": "no major impact on DNA synthesis"}]}
